ChEMBL document CHEMBL1145594, “Carbonic anhydrase inhibitors: design of spin-labeled sulfonamides incorporating TEMPO moieties as probes for cytosolic or transmembrane isozymes” (Bioorg Med Chem Lett, 2008)

Each molecule was assayed against Carbonic anhydrase 9 (Homo sapiens, UniProt Q16790).
Description: Inhibition of human cloned carbonic anhydrase 9 by CO2 hydration stopped-flow assay

Q: With `CC1(C)CC(NC(=S)Nc2cccc(S(N)(=O)=O)c2)CC(C)(C)N1[O]` as the molecule, how does the Ki read?
A: 132 nM

Q: With `CC1(C)CC(NC(=S)Nc2ccc(S(=O)(=O)NCCc3ccc(S(N)(=O)=O)cc3)cc2)CC(C)(C)N1[O]` as the molecule, how does the Ki read?
A: 41 nM

Q: Which Ki does the source give for `CC1(C)CC(NC(=S)Nc2ccc(S(=O)(=O)Nc3cccc(S(N)(=O)=O)c3)cc2)CC(C)(C)N1[O]` here?
A: 220 nM

Q: `CC1(C)CC(NC(=S)NCCc2ccc(S(N)(=O)=O)cc2)CC(C)(C)N1[O]` was tested. Which Ki did it give?
A: 39 nM

Q: `CC1(C)CC(NC(=S)Nc2ccc(S(=O)(=O)NCc3ccc(S(N)(=O)=O)cc3)cc2)CC(C)(C)N1[O]` was tested. Which Ki did it give?
A: 7 nM

Q: `CC1(C)CC(NC(=S)NCc2ccc(S(N)(=O)=O)cc2)CC(C)(C)N1[O]` was tested. Which Ki did it give?
A: 35 nM

Q: For `CC1(C)CC(NC(=S)Nc2ccc(S(N)(=O)=O)cc2F)CC(C)(C)N1[O]`, which Ki is on record?
A: 22 nM

Q: For `CC1(C)CC(NC(=S)Nc2ccc(S(N)(=O)=O)cc2Cl)CC(C)(C)N1[O]`, which Ki is on record?
A: 14 nM

Q: How did the Ki turn out when `CC1(C)CC(NC(=S)Nc2ccc(S(=O)(=O)Nc3ccc(S(N)(=O)=O)cc3)cc2)CC(C)(C)N1[O]` was run?
A: 30 nM
